Key:
Type in all cases: cell-based
[1] = test system: Pseudomonas stutzeri strain LH4:15, ATCC PTA-8823; assay: Aerobic growth response (turbidity) to varying concentrations of potential microbial nutrients; conditions: for concentration at which microbial growth was inhibited: aerobic growth at 30° C. As to growth response (turbidity): key: − = no turbidity; + = slight turbidity; ++ = moderate to heavy turbidity.
Procedure: (§1) Typically cells were grown at a temperature in the range of about 25° C. to about 40° C. in an appropriate medium.
Additional potential microbial nutrients were added at various concentrations as outlined in Table 1. Growth was monitored visually with positive growth indicated by moderate to heavy turbidity.

[2] = test system: Pseudomonas stutzeri strain LH4:15 (ATCC PTA-8823); assay: Anaerobic growth and survival: biocidal versus biostatic inhibition; conditions: for change in Log cell number: day 0 vs day 7, anaerobic; for Final anaerobic vial OD: starting OD600 = 0.05
Procedure: In this invention, the anaerobic growth and survival was tested in 20 ml crimp-capped anaerobic vials, using a complete nutrient medium of the following composition: Na2HPO4.7H2O, 1.4 g/L, KH2PO4, 0.69 g/L, NH4Cl, 0.5 g/L, MgSO4.7H2O, 0.1/L g, SL-10 trace metals, 10 ml, NaCl, 7.5 g/L, NaHCO3, 7.2 g/L, sodium nitrate, 12 g/L, Na lactate, 7 g/L, yeast extract, 10 mg/L, pH 7.3-7.8.
The anaerobic growth and survival was tested as outlined above. […] Vials were inoculated using an overnight aerobic culture of Pseudomonas stutzeri strain LH4:15 (ATCC PTA-8823) in Luria Bertani medium (LB, Mediatech Inc., Herndon, Va.,) at a final OD600 of 0.05. Within 2 hours of inoculation, serial dilutions from each treatment vial were made into aerobic LB medium to determine the cell numbers at Day 0. After approximately 24 hours cell numbers were estimated by noting the highest positive dilution based on the presence or absence of turbidity in dilutions of 10^−1 to 10^−11 in the serial dilution plates. Cell numbers on Day 0 and Day 7 were measured to obtain a survival estimate during inhibitor exposure.

[3] = test system: Pseudomonas stutzeri strain LH4:15 (ATCC PTA-8823); assay: Aerobic growth response (turbidity) to varying concentrations of industrial preservatives;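 also: single plus means slight turbidity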
Procedure: as §1
Pseudomonas stutzeri strain LH4:15 (ATCC PTA-8823) was grown as outlined in Example 1. Various preservatives commonly used in the food, cosmetic, and water treatment industries were tested for their inhibitory effect at various concentrations (Table 2). Growth was monitored visually and positive growth was indicated by moderate to heavy turbidity.

[4] = 10 g/L, 120 hours of incubation
[5] = 20 g/L, 120 hours of incubation
[6] = 50 g/L, 120 hours of incubation
[7] = 100 g/L, 24 hours of incubation
[8] = 100 g/L, 48 hours of incubation
[9] = 100 g/L, 120 hours of incubation
[10] = 200 g/L, 24 hours of incubation
[11] = 200 g/L, 48 hours of incubation
[12] = 200 g/L, 120 hours of incubation

| Compound | Growth response (turbidity) ([1]; 10 g/L, 24 hours of incubation) | Growth response (turbidity) ([1]; 10 g/L, 48 hours of incubation) | Growth response (turbidity) [1, 4] | Growth response (turbidity) ([1]; 20 g/L, 24 hours of incubation) | Growth response (turbidity) ([1]; 20 g/L, 48 hours of incubation) | Growth response (turbidity) [1, 5] | Growth response (turbidity) ([1]; 50 g/L, 24 hours of incubation) | Growth response (turbidity) ([1]; 50 g/L, 48 hours of incubation) | Growth response (turbidity) [1, 6] | Growth response (turbidity) [1, 7] | Growth response (turbidity) [1, 8] | Growth response (turbidity) [1, 9] | Growth response (turbidity) [1, 10] | Growth response (turbidity) [1, 11] | Growth response (turbidity) [1, 12] | concentration at which microbial growth was inhibited [1] [g/L] | change in Log cell number ([2]; 50 g/L) | Final anaerobic vial OD ([2]; 50 g/L) | change in Log cell number ([2]; 100 g/L) | Final anaerobic vial OD ([2]; 100 g/L) | other results |
| --- | --- | --- | --- | --- | --- | --- | --- | --- | --- | --- | --- | --- | --- | --- | --- | --- | --- | --- | --- | --- | --- |
| NC(N)=O [Urea] | ++ | ++ | ++ | ++ | ++ | ++ | − | − | − | − | − | − | − | − | − | ≥ 50 | −1 | 0.03 | −1 | 0.02 | change in Log cell number ([2]; 20 g/L): −1; Final anaerobic vial OD ([2]; 20 g/L): 0.2; change in Log cell number ([2]; 30 g/L): −1; Final anaerobic vial OD ([2]; 30 g/L): 0.13; change in Log cell number ([2]; 200 g/L): Dead; Final anaerobic vial OD ([2]; 200 g/L): 0.01; change in Log cell number ([2]; 300 g/L): Dead; Final anaerobic vial OD ([2]; 300 g/L): 0.01 |
| Cc1cc(O)ccc1Cl [4-chloro-3-metyhl phenol] |  |  |  |  |  |  |  |  |  |  |  |  |  |  |  |  |  |  |  |  | growth (turbidity) ([3]; 0.1 g/L): −; growth (turbidity) ([3]; 0.5 g/L): −; growth (turbidity) ([3]; 1 g/L): − |
| OCCO [Ethylene glycol] | ++ | ++ | ++ | ++ | ++ | ++ | ++ | ++ | ++ | + | ++ | ++ | − | − | − |  |  |  |  |  |  |
| CCCCCCCCCCCCN(C)C [N,N,-dimethyldodecylamine] |  |  |  |  |  |  |  |  |  |  |  |  |  |  |  |  |  |  |  |  | growth (turbidity) ([3]; 0.0001 g/L): ++; growth (turbidity) ([3]; 0.001 g/L): ++; growth (turbidity) ([3]; 0.005 g/L): ++; growth (turbidity) ([3]; 0.01 g/L): ++; growth (turbidity) ([3]; 0.1 g/L): −; growth (turbidity) ([3]; 0.5 g/L): −; growth (turbidity) ([3]; 1 g/L): − |
| O=[N+]([O-])[O-].[Na+] [NaNO3, sodium nitrate] | ++ | ++ | ++ | ++ | ++ | ++ | − | + | ++ | − | − | − | − | − | − | ≥ 100 | −1 | 0.06 | −2 | 0.02 | change in Log cell number ([2]; 80 g/L): 0; Final anaerobic vial OD ([2]; 80 g/L): 0.03; change in Log cell number ([2]; 200 g/L): −6; Final anaerobic vial OD ([2]; 200 g/L): 0.03; change in Log cell number ([2]; 400 g/L): −5; Final anaerobic vial OD ([2]; 400 g/L): 0.03 |
| CCO [Ethanol] | ++ | ++ | ++ | + | ++ | ++ | − | − | − |  |  |  |  |  |  |  |  |  |  |  | Growth response (turbidity) ([1]; 0.05 g/L, 24 hours of incubation): ++; Growth response (turbidity) ([1]; 0.05 g/L, 48 hours of incubation): ++; Growth response (turbidity) ([1]; 0.05 g/L, 120 hours of incubation): ++; Growth response (turbidity) ([1]; 0.1 g/L, 24 hours of incubation): ++; Growth response (turbidity) ([1]; 0.1 g/L, 48 hours of incubation): ++; Growth response (turbidity) ([1]; 0.1 g/L, 120 hours of incubation): ++; Growth response (turbidity) ([1]; 0.5 g/L, 24 hours of incubation): ++; Growth response (turbidity) ([1]; 0.5 g/L, 48 hours of incubation): ++; Growth response (turbidity) ([1]; 0.5 g/L, 120 hours of incubation): ++; Growth response (turbidity) ([1]; 1 g/L, 24 hours of incubation): ++; Growth response (turbidity) ([1]; 1 g/L, 48 hours of incubation): ++; Growth response (turbidity) ([1]; 1 g/L, 120 hours of incubation): ++ |
